Laboratory results published in US20110172217A1, “RING-FUSED MORPHOLINE DERIVATIVE HAVING PI3K-INHIBITING ACTIVITY” (Shionogi & Co., Ltd., priority 2008, published 2011).

Assays:
PI-3 kinase γ [1] = target: T1, PI-3 kinase γ (Homo sapiens, UniProt P48736); experiment: PI3Kγ inhibitory activity, PI3-kinase HTRF assay (inhibition ratio); assay type: biochemical; settings: 0.5 h, compound at 50 μmol/L
Outline: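 Human PI3Kγ was preincubated 10 min with compound and PIP2 substrate, then reacted 30 min at room temperature with ATP (40 μmol/L in the added solution); EDTA/biotin-PIP3 quenched. HTRF 665/620 nm ratio read after 18 h, normalized to no-compound (100%) and no-enzyme (0%) controls, gave % inhibition at 50 or 10 μmol/L compound.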

PI-3 kinase γ [2] = target: T1, PI-3 kinase γ; experiment: PI3Kγ inhibitory activity (Ki value); assay type: biochemical; settings: test ATP concentration 10 μmol/L
Procedure: The PI3Kγ inhibitory activity (Ki value) of a compound was evaluated according to the following procedure:
5 μL of a compound solution containing 10% DMSO and 200 μmol/L of a compound was changed to 5 μL of a compound solution containing 10% DMSO and either 200, 64, 20, 6.4, 2, 0.64, or 0.20 μmol/L of the compound (optionally, this is diluted to a lower concentration). Using a method similar to the method for measuring PI3Kγ inhibitory activity, inhibition ratios were measured in the presence of the compound at 50, 16, 5, 1.6, 0.5, 0.16, and 0.05 μmol/L (optionally, a lower concentration). Then an IC50 value was calculated by a logistic approximation method or the linear regression method using two concentrations that across 50% inhibition. Separately, the ATP concentration in the reaction solution (40 μmol/L ATP, 10 mmol/L MgCl2, 5 mmol/L DTT) at the time of the start of a reaction in the absence of the compound was changed to 80, 40, 20, 10, 5, 2.5, 1.25, or 0.625 μmol/L. Then, HTRF ratios were measured by a similar method. The value obtained by subtracting the HTRF ratio at each ATP concentration from the HTRF ratio in the absence of PI-3 kinase γ was defined as the value obtained by multiplying reaction rate (v) at each ATP concentration with a constant. The Michaelis-Menten constant Km was then calculated by the Lineweaver-Burk plot method. The Ki value of a compound was calculated by the following formula.
Ki=IC50 value/(1+10 μmol/L (test ATP concentration)/Km(μmol/L))

[3] = Metabolic stability test, pooled human liver microsome; assay type: in vitro ADME; settings: 2 μmol/L compound; human liver microsome 0.5 mg protein/mL, NADPH, 37° C.
Procedure: After a subject compound was reacted for a certain time using a commercially available pooled human liver microsome, a reacted sample and an unreacted sample are compared to calculate a survival ratio, and then the degree of metabolism in the liver was evaluated.
0.2 mL of a buffer solution (50 mmol/L of Tris-HCl in pH 7.4, 150 mmol/L of potassium chloride, and 10 mmol/L of magnesium chloride) containing a human liver microsome of 0.5 mg protein/mL was reacted in the presence of 1 mmol/L NADPH at 37° C. for 0 or 30 minutes (oxidative reaction). After reacting, 50 μL of the reaction solution was added to 100 μL of a solution of methanol/acetonitrile (1/1 (v/v)), mixed, and then centrifuged at 3000 rpm for 15 minutes. The test compound in the supernatant was quantitated with LC/MS/MS. The amount of the compound at a reaction time of 0 minute was defined as 100% and, based on that, the percentage of the test compound remained after reacting for 30 minutes was calculated.

T1 sequence (P48736 whole entry): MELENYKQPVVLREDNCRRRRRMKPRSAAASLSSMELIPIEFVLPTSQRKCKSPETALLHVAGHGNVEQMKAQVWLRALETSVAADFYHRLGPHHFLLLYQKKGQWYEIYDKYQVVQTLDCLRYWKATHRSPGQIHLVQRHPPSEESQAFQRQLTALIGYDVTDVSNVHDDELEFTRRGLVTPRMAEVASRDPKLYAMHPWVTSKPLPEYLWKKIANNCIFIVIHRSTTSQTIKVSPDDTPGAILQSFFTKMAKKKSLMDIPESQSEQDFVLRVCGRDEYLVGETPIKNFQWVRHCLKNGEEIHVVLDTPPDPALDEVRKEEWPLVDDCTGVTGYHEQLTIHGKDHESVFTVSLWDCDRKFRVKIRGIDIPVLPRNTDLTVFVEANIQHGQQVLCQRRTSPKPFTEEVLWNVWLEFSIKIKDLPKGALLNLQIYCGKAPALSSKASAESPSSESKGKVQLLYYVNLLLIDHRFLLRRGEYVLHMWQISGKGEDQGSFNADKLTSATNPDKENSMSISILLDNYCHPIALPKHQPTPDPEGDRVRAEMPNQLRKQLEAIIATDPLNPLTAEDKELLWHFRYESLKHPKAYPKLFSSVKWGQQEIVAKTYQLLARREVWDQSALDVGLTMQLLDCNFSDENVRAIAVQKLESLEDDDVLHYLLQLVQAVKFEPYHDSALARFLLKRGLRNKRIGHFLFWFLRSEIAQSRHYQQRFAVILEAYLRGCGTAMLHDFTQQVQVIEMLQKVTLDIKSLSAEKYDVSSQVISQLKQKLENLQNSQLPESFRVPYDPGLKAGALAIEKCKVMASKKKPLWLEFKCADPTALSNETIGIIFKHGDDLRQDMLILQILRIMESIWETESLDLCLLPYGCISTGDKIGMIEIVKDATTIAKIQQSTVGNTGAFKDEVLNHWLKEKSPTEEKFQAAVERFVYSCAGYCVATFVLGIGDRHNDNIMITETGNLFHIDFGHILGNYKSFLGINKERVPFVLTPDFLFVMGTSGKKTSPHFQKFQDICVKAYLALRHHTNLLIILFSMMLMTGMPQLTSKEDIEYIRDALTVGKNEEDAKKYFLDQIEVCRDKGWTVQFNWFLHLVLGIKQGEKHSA

Row | SMILES | inhibition at 50 µM (PI-3 kinase γ [1]) [%] | Ki (PI-3 kinase γ [2]) [nM] | percentage of test compound remained after reacting for 30 minutes [3] [%]
1 | O=C(O)COc1cccc(Nc2ccc3c(n2)N(C(=O)Nc2ccccc2)CCO3)c1 [Compound I-240] | ≥ 95 | 48 | 89.9
2 | O=C(O)c1ccccc1Nc1ccc2c(n1)N(C(=O)Nc1ccccc1)CCO2 [Compound I-145] | 81 | 44 | 88.4
